Data set [1] deals with MML cells (prostate cancer) and breast cancer cells. In words: Cytotoxicity assay of MML cells and breast cancer cells. It counts as cell-based. An excerpt: Normal and neoplastic cells in culture derive their nutrients from transport and utilization of molecules from the media to the interior of the cell. This process is not dependent on blood vessel growth, and therefore TM should have no effect on cell growth rates and cell viability over a wide range of concentration, until a level of TM which is toxic to most cells is reached. One mechanism of toxicity is the depletion of free copper levels below those required for basic cell function. For concentrations of TM beyond this toxic level, both normal and neoplastic cells will be unable to survive, due to cellular toxicity of TM.
This was confirmed in a cytotoxicity assay of MML cells (prostate cancer) and breast cancer cells. […] The fraction of viable cells decreased precipitously from 100% to 15% when the concentration of TM increased from 1 μg/ml to 10 μg/ml. TM is therefore not contemplated for use a direct cytotoxic agent, as it is clear that, at the very high doses required for a cytotoxic effect, both tumor and normal cell death would occur. The serum TM concentrations needed to achieve an effective decoppering level are 100-500-fold lower than the threshold lethal level for cells.

Data set [2] relates to copper toxicity. The conditions noted are these: cited from earlier work.

The text below walks through data of patent US7438931B2, “Methods and compositions for the treatment of angiogenic diseases” (The Regents of The University of Michigan, priority 1998, dated 2008).

As for tetrathiomolybdate [TM], the “serum TM concentrations for effective decoppering relative to threshold lethal level for cells” value in data set [1] is recorded as 100-500 fold lower. In data set [2] (copper loaded sheep, 50 or 100 mg 2× weekly for up to 11 weeks), the “tolerability of IV TM injections” value is listed as “tolerated up to 22 injections of TM without clinical problems”. Also, in data set [2] (over 400 animals of commercial sheep flocks, prophylactic use), the adverse side effects entry is reported as “no adverse side effects”.
